According to patent publication US8073630B2, “Pharacogenetic method for prediction of the efficacy of methotrexate monotherapy in recent-onset arthritis” (Exagen Diagnostics, Inc., priority 2006, dated 2011):

Experiments:
[1] = system: patients with recent onset RA; test: MTX monotherapy efficacy in recent-onset RA patients (BeSt study subcohort), DAS response at 6 months; assay type: in vivo, human
Text: The 205 patients enrolled in this study comprised a subcohort of the 508 patients who participated in the BeSt study. (5) The BeSt study is a randomized, multicenter, single-blinded, clinical study comparing the clinical efficacy of four different treatment strategies in recent onset RA including sequential monotherapy (n=126 starting with MTX), step up to combination therapy of MTX with sulfasalazine (SSZ, n=121 starting with MTX), initial combination therapy with MTX, SSZ and a high tapered dose of prednisolone (n=133), or initial biologic therapy with infliximab plus MTX (n=128). Inclusion criteria for patients in the study comprise the American College of Rheumatology (ACR) 1987 criteria for RA (23), an age ≧18 years, and a disease duration of <2 years. Patients were also required to have active RA, defined as ≧6 swollen joints (out of 66) and ≧6 tender joints (out of 68) and either an erythrocyte sedimentation rate (ESR) ≧28 mm/hour or a score of ≧20 mm on 100 mm visual analogue scale (VAS) for patient's assessment of global health (0=best, 100=worst). […]
Patients allocated initial monotherapy with MTX with available DNA samples (n=205) were included in the current analysis. […] A research nurse who was blinded to the allocated treatment group assessed the DAS every 3 months. […]

RA patients = test: Replication cohort of RA patients on MTX monotherapy (BeSt and UMCN), response at 6 months; assay type: in vivo, human; details: replication group n=38 (n=17 responders); average MTX dosage 19 mg weekly (range 5-25 mg weekly)
Experimental: Thirty-eight patients were recruited to replicate the genetic model. The validation cohort data were collected after development of the predictive model, but the investigators were blinded to either the clinical parameters or the genotyping results for the replication group. Fourteen patients were available from the BeSt study; they were treated with initial MTX monotherapy, but DNA samples were obtained after the clinical pharmacogenetic model was developed. Twenty-four patients were available from the RA cohort of the rheumatology department at the University Medical Center Nijmegen (UMCN), consisting of 553 patients (5, 51). Patients were eligible for the replication cohort if they fulfilled the ACR 1987 criteria for RA, started with MTX monotherapy, had not been treated previously with DMARDs other than antimalarial agents, and had disease duration of less than 2 years. In addition, clinical data comprising the prediction model and DNA samples had to be available. In the UMCN cohort, 352 patients were recorded as having received MTX at any time point. […]
The response at 6 months after starting MTX treatment in the group of RA patients (n=38) in the replication model was 45% (n=17), with an average MTX dosage of 19 mg weekly (range 5-25 mg weekly). […] The calculated simple scores in the replication group of RA patients ranged from 1 to 9. […]

Compound: CN(Cc1cnc2nc(N)nc(N)c2n1)c1ccc(C(=O)N[C@@H](CCC(=O)O)C(=O)O)cc1 [MTX, Methotrexate]
- responders (DAS of ≦2.4, good clinical response) ([1]; at 6 months of treatment with MTX, oral MTX 7.5 mg weekly increasing to 15 mg, stepwise to 25 mg weekly, with folic acid 1 mg daily, 186 patients evaluable (n=87 responders)): 47 % of patients
- patients who discontinued MTX permanently after experiencing ADEs ([1]; of the 205 patients, within first 6 months): 10 patients
- response at 6 months after starting MTX treatment (RA patients): 45%
